The source of these data is article PMC10097024, “Cytotoxic and Antibacterial Prenylated Acylphloroglucinols from Hypericum olympicum L” (Plants, 2023).

The test system of one assay is EA.hy926. The assay is described as follows: MTT cytotoxicity test. It is filed as cell-based, human. The settings on record: Homo sapiens, EA.hy 926, EA.hy926, 72 h exposure. The source says: (§1) The group of human cell lines used in this study were represented by the tumor cell lines MDA-MB (breast carcinoma), EJ (urinary bladder carcinoma), K-562 (chronic myeloid leukemia), HL-60 (acute pre-myeloid leukemia), HL-60/DOX (multi-drug resistant HL-60 cell line, with over expression of MRP-1) and the non-tumorigenic cell lines HEK-293 (embryonic kidney cells) and EA.hy926 (vascular endothelial cells). EJ, HL60 and EA.hy926 were purchased from American Type Culture Collection (ATCC) (Manassas, Virginia). The other cell lines were purchased from the German Collection of Microorganisms and Cell Cultures (DSMZ GmbH, Braunschweig, Germany). HL-60/DOX cell lines were generated by periodically treating HL-60 cells with anthracyclins. The conditions in which the cell culture flasks were maintained were as follows: 37 °C in an incubator “BB 16-Function Line” Heraeus (Kendro, Hanau, Germany) with 5% CO2 humidified atmosphere. The growth medium was 90% RPMI-1640, supplemented with 10% FBS and 2 mM L-glutamine. MDA-MB-231, EJ, HEK-293 and EA.hy926 cells were maintained as adherent monolayer cultures while all the other (leukemic) cell lines were grown as suspension type cultures. Cells were maintained in log phase: the adherent cell lines were subjected to trypsinization 1–2 times a week and the leukemic cell lines were passaged 2–3 times a week by removing of part of the cellular suspension and substituting it with fresh medium.
(§2) The evaluation of cytotoxic activity was conducted by MTT test as described previously. The median inhibitory concentration (IC50) values which represent the half-maximal concentration values were calculated from sigmoidal concentration–response curves, using non-linear regression analysis (Curve fit, GraphPad Prizm 5.0 software, GraphPad Software Inc., San Diego, CA, USA). The selectivity index was calculated as the ratio of the IC50 of a non-cancerous line (HEK-293 or EA.hy926) and the average IC50 of all chemosensitive tested tumor cell lines (x). Therefore, SI=IC50HEK-293/IC50x . The resistance index (RI) was calculated as the ratio of IC50 of the multi-drug resistant HL-60/DOX cell line and the IC50 of its parent cell line: RI=IC50HL-60/DOX/IC50HL-60 .

A further assay relates to EJ. The assay is described as follows: MTT cytotoxicity test. The format is cell-based, human. The settings on record: Homo sapiens, 72 h exposure.
Description: as §1, §2
Background: Tetrazolium assays rely on reduction of a dye to a coloured formazan, in cell work by metabolically active cells.

In the next assay the test system is HEK-293. As to the kind of experiment: MTT cytotoxicity test. It is filed as cell-based, human. The conditions noted are these: Homo sapiens, HEK293, HEK-293, 72 h exposure.
Description: as §1, §2

Another assay deals with HL-60/DOX. The assay is described as follows: MTT cytotoxicity test. The format is cell-based, human. The conditions noted are these: Homo sapiens, 72 h exposure.
Description: as §1, §2

For assay [1], the system named is HL-60. The assay is described as follows: MTT cytotoxicity test. The format is cell-based, human. The conditions noted are these: Homo sapiens, HL-60, 72 h exposure.
Description: as §1, §2

For assay [2], the system named is K-562. As to the kind of experiment: MTT cytotoxicity test. The format is cell-based, human. The settings on record: Homo sapiens, K562, K-562, 72 h exposure.
Description: as §1, §2

Assay [3] has as its system MDA-MB-231. The assay is described as follows: MTT cytotoxicity test. It is filed as cell-based, human. The settings on record: Homo sapiens, MDA-MB-231, 72 h exposure.
Description: as §1, §2

Assay [4] concerns human tumor (MDA-MB-231, EJ, K-562, HL-60 and HL-60/DOX) cell lines. The assay is described as follows: MTT cytotoxicity test, tumor cell line panel. The settings on record: Homo sapiens; average IC50 of all chemo-sensitive tested tumor cell lines; read-out: x. It is filed as cell-based.
Description: as §1, §2

Assay [5] concerns HL-60. The assay is described as follows: Antiproliferative test (NCI methodology). The format is cell-based, human. The conditions noted are these: for TGI: HL-60, total growth inhibition; for GI50: Homo sapiens, HL-60, MTT readout.
Description: as §1
(§3) The test was performed according the methodology of National Cancer Institute (NCI), USA [116]. Briefly, cells were seeded into 96-well plates in the same way as for an MTT test and after 24 h, the absorption of one plate of each cell line was measured as in the MTT assay described above, to represent a measurement of the cell population at the time of drug-addition (Tz). The rest of the plates were treated with the tested compounds and the experiment for them continued as the MTT-method. Using the absorbance measurements [(Tz, untreated control growth (C) and test growth in the present of the compounds (Ti)], the percentage growth is calculated at each of the tested concentrations of the compounds. Percentage growth inhibition (GI) is calculated as GI%=Ti−Tz/C−Tz×100 for concentrations for which Ti ≥ Tz. For concentrations in which Ti < Tz it is calculated as GI%=Ti−Tz/Tz×100 . Two dose parameters are calculated for each experimental agent. Growth inhibition of 50% (GI50) is calculated from Ti−Tz/C−Tz×100=50 . This is the drug concentration resulting in a 50% reduction in the net protein increase (as measured by MTT-test) in control cells during the drug incubation. The drug concentration resulting in total growth inhibition (TGI) is calculated from Ti = Tz.

Assay [6] concerns K-562. As to the kind of experiment: Antiproliferative test (NCI methodology). It is filed as cell-based, human. The conditions noted are these: for GI50: Homo sapiens, K562, K-562, MTT readout; for TGI: K-562, total growth inhibition.
Description: as §1, §3

In assay [7] the test system is MDA-MB-231. As to the kind of experiment: Antiproliferative test (NCI methodology). It is filed as cell-based, human. The settings on record: for GI50: Homo sapiens, MDA-MB-231, MTT readout; for TGI: MDA-MB-231, total growth inhibition.
Description: as §1, §3

The subject of the next assay is Bcl-2. As to the kind of experiment: Western blot, Bcl-2. The format is cell-based, human. The settings on record: MDA-MB-231 and HL60/DOX. How it is done: (§4) Next, the samples were lysed on ice with a buffer containing 100 mM Tris–HCl at pH 8.0, 4% SDS, 20% glycerol, 1% Na3VO4, 200 mM dithiothreitol (DTT) (Sigma-Aldrich, St. Louis, MO, USA) and protease inhibitor (Roche, Basel, Switzerland). Then the cell lysate was boiled for 15 min and centrifuged at 13,000 rpm for 10 min at 4 °C. Before DTT addition, aliquot samples of 10 μL were taken from the lysates. Their protein concentrations were determined using a BCA protein assay kit (ThermoFisher Scientific, Waltham, MA, USA) after dilution 5× with H2O. Subsequently, the samples were subjected to denaturing SDS-PAGE electrophoresis and then transferred to PVDF membrane (Santa Cruz Biotechnology, USA). After this, the blots were fixed with blocking solution (5% w/v nonfat dried milk powder, dissolved in TBS) and incubated with specific primary antibodies: mouse procaspase-9 (sc-17784), mouse Bcl-2 (C-2, sc-7382) and mouse β-actin (sc-8432). The incubation was either overnight at 4 °C or for 150 min at room temperature. After washing, the membranes were incubated for 45 min with horseradish peroxidase conjugated secondary goat anti-mouse antibody (sc-2005) or mouse IgG kappa antibody (sc-516102) (Santa Cruz Biotechnology, Santa Cruz, CA, USA). […] This densitometry analysis of the blots was calculated by Quantity One software version 4.6.9 (Bio-Rad Laboratories, Hercules, CA, USA). […]
In general terms: A western blot detects proteins with antibodies after separation by electrophoresis.

A further assay concerns MRSA. The settings on record: cited from earlier work.
Assay [8] relates to NorA multidrug efflux pumps. Also on record: method as in PMID 24119569. The conditions noted are these: S. aureus; cited from earlier work.
A further assay has as its system MDA-MB-231 cells. The settings on record: cited from earlier work.
In the next assay the test system is K-562 cells. The settings on record: K-562; cited from earlier work.
Another assay deals with leukemia U937 cells. The conditions noted are these: lowest IC50 value; cited from earlier work.
Assay [9] deals with prostate cancer cell PC-3. The conditions noted are these: cited from earlier work.
A further assay has as its system S. aureus. The conditions noted are these: cited from earlier work.
A further assay relates to Sarcina lutea. The conditions noted are these: cited from earlier work.
For assay [10], the system named is Corynebacterium diphtherie. The conditions noted are these: cited from earlier work.
The subject of another assay is E. faecalis. The conditions noted are these: cited from earlier work.
Assay [11] deals with Gram-negative bacteria, such as E. coli and fungi. The conditions noted are these: cited from earlier work.
The subject of another assay is procaspase 9. The assay is described as follows: Western blot, procaspase 9. The format is cell-based, human. The conditions noted are these: MDA-MB-231 and HL60/DOX. On the procedure: as §4

Values after ≈ are worked out from the molar mass of the structure shown. Values joined by “and” are separate entries in the source; they are usually repeats but may differ in a detail not shown here. Equal values may be shown once. Read-outs that look alike come from different tables or passages of the source.

On to `CC[C@H](C)C(=O)c1c(O)cc(O)cc1OC/C=C(\C)CCC=C(C)C` [Compound 2, olympicin A], for which the IC50 was determined as 34 ± 6.5 µM with EA.hy926; 5.61 ± 0.5 µM with EJ; 22.5 ± 3.8 µM in the assay with HEK-293; 1.96 ± 0.2 µM with HL-60/DOX; 13.8 ± 1.8 µM in the assay with HL-60 [1]; 22.9 ± 4 µM with K-562 [2]. The IC50 in the assay with MDA-MB-231 [3] was 2.95 ± 0.4 µM; in assay [4] it was 11.3 µM; in the assay on MRSA (growth of MRSA), 1.80 µg/mL (≈ 5.2 µM). The TGI in the assay on HL-60 [5] worked out at 81.63 µM; with K-562 [6], 23.49 µM; with MDA-MB-231 [7], 2.54 µM. Besides, the GI50 in the assay on HL-60 [5] is 72.6 µM; in the assay on K-562 [6] it was 20.3 µM; in the assay on MDA-MB-231 [7], 1.07 µM. In addition, the “degradation of the antiapoptotic protein Bcl-2 (in words)” value with Bcl-2 was “degradation”. Further, the “inhibition of efflux from NorA multidrug efflux pumps” value in assay [8] is listed as “inhibited the efflux”.

Consider `CC(C)=CCC[C@]1(C)[C@@H](CC=C(C)C)C[C@@]2(CC=C(C)C)C(=O)[C@]1(C(=O)C(C)C)C(=O)C(CC=C(C)C)=C2O` [hyperforin], for which the IC50 is 12 µM with MDA-MB-231 cells, 21 µM with K-562 cells, 1.8 µM in the assay on leukemia U937 cells and 37 µM in [9]. The minimal inhibitory concentration (MIC) in the assay with MRSA (MRSA) is 1 µg/mL (≈ 1.86 µM); in the assay with S. aureus it was 0.1 mg/L and 0.19 μM; in the assay with S. aureus (listed as Hyperforin), 50 mg/L (≈ 93.1 µM); with Sarcina lutea, 0.1 mg/L and 0.19 μM; in assay [10], 0.1 mg/L and 0.19 μM; with E. faecalis, 1 µg/mL (≈ 1.86 µM). In [11], the MIC was 400 µg/mL (≈ 745 µM).

Take `CC(C)=CCC/C(C)=C/COc1cc(O)cc(O)c1C(=O)C(C)C` [Compound 1, (E)-1-[2-{(3,7-dimethylocta-2,6-dien-1-yl)oxy}-4,6-dihydroxyphenyl]-2-methylpropan-1-one]: the IC50 in the assay with EA.hy926 is 6.73 ± 0.9 µM; in the assay on EJ it was 7.01 ± 1.3 µM; in the assay with HEK-293, 14.7 ± 2.2 µM; in the assay with HL-60/DOX, 5.59 ± 0.4 µM; in the assay with HL-60 [1] it was 16.6 ± 3.3 µM; with K-562 [2], 9.05 ± 0.8 µM. Further, the IC50 with MDA-MB-231 [3] was 24.9 ± 3.2 µM; in assay [4], 14.5 µM. The TGI in the assay on HL-60 [5] came to 9.39 µM; in the assay with K-562 [6], 11.90 µM; with MDA-MB-231 [7], 18.56 µM. In addition, the GI50 with HL-60 [5] stood at 3.79 µM; in the assay with K-562 [6] it was 5.2 µM; in the assay with MDA-MB-231 [7] it was 10.4 µM. The “degradation of the precursor caspase 9 (in words)” value with procaspase 9 is listed as “not any observed decrease”. For the same compound, the MIC50 in the assay with MRSA (growth of MRSA) was 1.14 µg/mL (≈ 3.43 µM).

For the compound hyperatomarin, the IC50 in the assay with MDA-MB-231 cells is 0.86 µM.

Broadly, the TGI is the concentration at which net growth stops. By GI50 is commonly meant the concentration at which growth is held to half of that of the control. As usually defined, the MIC is the smallest concentration in the dilution series that meets the test's criterion for growth inhibition. The term MIC50 denotes the lowest concentration that inhibits either 50% of growth or 50% of the strains tested, depending on the study.
